According to US6753424B1, “Conjugates of DNA interacting groups with steroid hormones for use as nucleic acid transfection agents” (priority 1998, dated 2004):

Columns and labels:
3Y1 cells = assay: Transfection enhancement, CMV-LacZ reporter, CaPO4 transfection of 3Y1 cells; format: cell-based, rat; conditions: for light units (relative luminescence, LacZ): 5 μg reporter, 3Y1
Description: Conditions: 3Y1 cells are transfected with an expression vector that is constitutively expressing the reporter gene LacZ (CMV-LacZ). Transfection conditions are identical throughout the various samples (total 10-12 μq DNA for 4 cm dishes). In some samples the DNA used for the transfection cocktail is pre-incubated with various conjugates at the given concentrations. The concentrations are calculated to give from 10−8 to 10−6 M after dispersing the CaPO4 precipitate in the recipient dish (5 ml volume). Transfection is performed O/N and after rinsing of the precipitate the cells are further incubated for 24 hours. LacZ levels are determined from cell extracts with a chemiluminescence LacZ enzyme assay (Galactolight plus. Tropix). The relative luminescence from each extract is given in RLU/mg*1000.
Cell culture. Cells are cultivated in DMEM supplemented with serum and antibiotica according to standard conditions (typically 10% FCS and Pen/Strep as antibiotica). At the day of transfection, cells are trypsinized and seeded at around 25-30% confluency. Cells are allowed to adhere to dish for 4-6 hours prior to transfection.
DNA pre-incubation (example for conditions that give5×10 exp (−6) Molar final concentration of the CL-C4-EtBr conjugate):
5 microgram of CMV-LacZ DNA (in 10 microliter TE) are mixed with 10 nmoles of hormone derivative (10 microliters stock solution) and incubated for 10 min at room temperature (final volume: 20 ul). The DNA/cortisol-C4-ethidum mix is then supplemented with 7 micrograms sheared calf thymus carrier DNA (in 14 microliters TE) and bidistilled water to give a final volume of 125 microliters.
Transfection by CaPO4: to each transfection sample (125 microliter volume DNA+water). 125 microliters of Ca ++ mix are added, and the mix is incubated for 5-10 min at room temperature. Each sample is then supplemented with 250 microliter of Pi-mix (with simultaneous mixing by up-down pipetting) and is further incubated 10 minutes at room temperature after which the cocktail is poured on top of the medium (5 ml) of each cell culture dish (4 cm diameter). The optimal time of incubation after Pi-mix addition is pre-determined by prior evaluation (size of the precipitate) of parallel samples. The precipitate is allowed to deposit onto the cells for 15 hours (incubation of 37 degrees, 5% CO2). The cells are then rinsed twice with Tris-buffered Saline, supplemented with fresh medium and further incubated under standard conditions. To analyze LacZ reporter gene function, the cells are either fixed or harvested 24 hours after precipitate removal.
Variation of parameters: samples in which the C1-C4-EtBr conjugates (or control compounds) are used at different concentrations, are similarly treated, except that the concentration of the stock solution in ethanol is correspondingly varied.

[1] = tested on: CV-1 cells reconstituted with exogenous GR; assay: Transfection enhancement, CMV-LacZ reporter, CV-1 cells reconstituted with exogenous GR; format: cell-based, monkey
Description: Conditions: CV-1 cells are first infected with an adenovirus system allowing expression of GR in >90% of the cells (S. B. Verca, unpublished). After 24 hours the cells are; transfected with an expression vector that is constitutively expressing the reporter gene LacZ (CMV-LacZ). Transfection conditions and analysis of LacZ reporter are the same as described in Example 7 legend. Transfection is performed O/N and after rinsing of the precipitate the cells are further incubated for 24 hours. LacZ levels are determined from cell extracts with a chemiluminescence LacZ enzyme assay (Galactolight plus, Tropix). The relative luminescence from each extract is given. Each value represents an individual extract. “Induction”: relative reporter gene activity (values divided by value of assay in lane 9, true negative control for liganding), rel/RLU=(RLU:protein)×1000, net=rel/RLU−600 (600=rel/RLU value approximately corresponding to rel/RLU value of mock transfection).

HUH-7 cells = assay: Transfection enhancement, CMV-LacZ reporter, HUH-7 cells; format: cell-based, human
Description: Conditions: HUH-7 cells are human hepatoma cells that contain substantial amounts of glucocorticoid receptor. The cells are transfected with an expression vector that is constitutively expressing the reporter gene LacZ (CMV-LacZ). Transfection conditions and analysis of LacZ reporter are the same as described in Example 7 legend. Transfection is performed O/N and after rinsing of the precipitate the cells are further incubated for 24 hours. LacZ levels are determined from cell extracts with a chemiluminescence LacZ enzyme assay (Galactolight plus, Tropix). The relative luminescence from each extract is given. Each value represents an individual extract. “Induction”: relative reporter gene activity (values divided by value of assay in lane 9, true negative control for DNA liganding). rel/RLU=(RLU:protein)×1000; net=rel/RLU−600 (600=rel/RLU value approximately corresponding to rel/RLU value of mock transfection).

[2] = tested on: CV-1 cells reconstituted with exogenous GR; assay: Transfection enhancement, CMV-LacZ reporter, CV-1 cells reconstituted with exogenous GR; format: cell-based, monkey; conditions: CV-1 cells that have not been supplemented with GR; data not shown
GR-GFP chimera = assay: Nuclear Transfer Induction assay (NTI), monourethane ligands, HeLa cells; format: cell-based; conditions: 1 hr
Description: Conditions: HeLa cells are transiently transfected by CaPO4 with an expression vector encoding a GR-GFP chimera (5 μg in transfection cocktail, 4 cm diameter dishes, DMEM with 3% FCS). After 24 hour expression, ligand is added for 1 hr and cells are fixed with formaldehyde (5 min 4° C.) and inspected by fluorescence microscopy. Fluorescent cells are counted and divided into different classes according to ‘cytoplasmic’ (C) versus ‘nuclear’ (N) localisation of fluorescence.
First column: “Conditions”: Name of compounds added (marked at top: ‘//ligand’), and their concentration (in parentheses) and assay number (01 through 21).
Values are given as percentage of cells displaying the corresponding localisatidn, within each tested condition the sum is 100%.

SMILES: CC[n+]1c(-c2ccccc2)c2cc(N)ccc2c2ccc(N)cc21 [EtBr, Ethidium Bromide, reference compound]
- light units (relative luminescence, LacZ) (3Y1 cells; ligand 10^-6M): 2250 RLU/mg*1000
- light units (relative luminescence, LacZ) (3Y1 cells; ligand 10^-7M): 2500 RLU/mg*1000
- light units (relative luminescence, LacZ) (3Y1 cells; ligand 10^-8M): 2750 RLU/mg*1000
- RLU ([1]; ligand 10-6, CV-1 with GR): 851
- induction (relative reporter gene activity, divided by value of lane 9) ([1]; ligand 10-6, CV-1 with GR): 0.77
- net = rel/RLU−600 ([1]; ligand 10-6, CV-1 with GR): 626.2
- rel/RLU = (RLU:protein)×1000 ([1]; ligand 10-6, CV-1 with GR): 1226.2
- RLU ([1]; ligand 10-7, CV-1 with GR): 1632
- induction (relative reporter gene activity, divided by value of lane 9) ([1]; ligand 10-7, CV-1 with GR): 2.01
- net = rel/RLU−600 ([1]; ligand 10-7, CV-1 with GR): 1626
- rel/RLU = (RLU:protein)×1000 ([1]; ligand 10-7, CV-1 with GR): 2226.5
- RLU (HUH-7 cells; ligand 10-6, HUH-7): 168920
- induction (relative reporter gene activity, divided by value of lane 9) (HUH-7 cells; ligand 10-6, HUH-7): 1.49
- net (HUH-7 cells; ligand 10-6, HUH-7): 103
- rel/RLU (HUH-7 cells; ligand 10-6, HUH-7): 233.3

SMILES: COC(=O)CCNC(=O)OCC(=O)[C@@]1(O)CCC2C3CCC4=CC(=O)CCC4(C)C3C(O)CC21C (stereo partly shown) [CL-C4]
- light units (relative luminescence, LacZ) (3Y1 cells; ligand 10^-6M): 3750 RLU/mg*1000
- light units (relative luminescence, LacZ) (3Y1 cells; ligand 10^-7M): 1625 RLU/mg*1000
- light units (relative luminescence, LacZ) (3Y1 cells; ligand 10^-8M): 2500 RLU/mg*1000

SMILES: CC[n+]1c(-c2ccccc2)c2cc(NC(=O)CCNC(=O)OCC(=O)[C@@]3(O)CCC4C5CCC6=CC(=O)CCC6(C)C5C(O)CC43C)ccc2c2ccc(N)cc21 (stereo partly shown) [CL-C4-EtBr]
- improvement of expression (3Y1 cells; lane 10 (10^-6M) versus lanes 11-13, 3Y1): 5-7 fold
- light units (relative luminescence, LacZ) (3Y1 cells; ligand 10^-6M): 7250 RLU/mg*1000
- light units (relative luminescence, LacZ) (3Y1 cells; ligand 10^-7M): 3750 RLU/mg*1000
- light units (relative luminescence, LacZ) (3Y1 cells; ligand 10^-8M): 2750 RLU/mg*1000
- SMGD effect (transfection enhancement) [2]: No SMGD effect
- improvement of expression ([1]; lane 06 (10-6) versus lanes 7-9, CV-1 with GR): 15-20 fold
- RLU ([1]; ligand 10-6, CV-1 with GR): 10010
- induction (relative reporter gene activity, divided by value of lane 9) ([1]; ligand 10-6, CV-1 with GR): 17.3
- net = rel/RLU−600 ([1]; ligand 10-6, CV-1 with GR): 13992
- rel/RLU = (RLU:protein)×1000 ([1]; ligand 10-6, CV-1 with GR): 14592
- RLU ([1]; ligand 10-7, CV-1 with GR): 1988
- induction (relative reporter gene activity, divided by value of lane 9) ([1]; ligand 10-7, CV-1 with GR): 2.75
- net = rel/RLU−600 ([1]; ligand 10-7, CV-1 with GR): 2232
- rel/RLU = (RLU:protein)×1000 ([1]; ligand 10-7, CV-1 with GR): 2831.9
- RLU ([1]; ligand 10-8, CV-1 with GR): 1211
- induction (relative reporter gene activity, divided by value of lane 9) ([1]; ligand 10-8, CV-1 with GR): 1.33
- net = rel/RLU−600 ([1]; ligand 10-8, CV-1 with GR): 1075
- rel/RLU = (RLU:protein)×1000 ([1]; ligand 10-8, CV-1 with GR): 1675
- improvement of expression (HUH-7 cells; lane 07 (10-6) versus lanes 8-9, HUH-7): 7-8 fold
- RLU (HUH-7 cells; ligand 10-6, HUH-7): 629514
- induction (relative reporter gene activity, divided by value of lane 9) (HUH-7 cells; ligand 10-6, HUH-7): 7.84
- net (HUH-7 cells; ligand 10-6, HUH-7): 543
- rel/RLU (HUH-7 cells; ligand 10-6, HUH-7): 673.3
- RLU (HUH-7 cells; ligand 10-7, HUH-7): 198082
- induction (relative reporter gene activity, divided by value of lane 9) (HUH-7 cells; ligand 10-7, HUH-7): 1.95
- net (HUH-7 cells; ligand 10-7, HUH-7): 135
- rel/RLU (HUH-7 cells; ligand 10-7, HUH-7): 265.2
- C < N, percentage of cells (GR-GFP chimera; ligand 1.10-6M): 45%
- C << N, percentage of cells (GR-GFP chimera; ligand 1.10-6M): 0%
- C = N, percentage of cells (GR-GFP chimera; ligand 1.10-6M): 55%
- C > N, percentage of cells (GR-GFP chimera; ligand 1.10-6M): 0%
- C >> N, percentage of cells (GR-GFP chimera; ligand 1.10-6M): 0%
- C < N, percentage of cells (GR-GFP chimera; ligand 1.10-7M): 9%
- C << N, percentage of cells (GR-GFP chimera; ligand 1.10-7M): 0%
- C = N, percentage of cells (GR-GFP chimera; ligand 1.10-7M): 74%
- C > N, percentage of cells (GR-GFP chimera; ligand 1.10-7M): 17%
- C >> N, percentage of cells (GR-GFP chimera; ligand 1.10-7M): 0%
